Assay in all cases: Incubation with recombinant human CYPs, substrate disappearance
Common to all, as to assay type: in vitro ADME

One series has as its target T1, CYP1A2 (Homo sapiens, UniProt P05177).
T1 sequence (P05177 1-516): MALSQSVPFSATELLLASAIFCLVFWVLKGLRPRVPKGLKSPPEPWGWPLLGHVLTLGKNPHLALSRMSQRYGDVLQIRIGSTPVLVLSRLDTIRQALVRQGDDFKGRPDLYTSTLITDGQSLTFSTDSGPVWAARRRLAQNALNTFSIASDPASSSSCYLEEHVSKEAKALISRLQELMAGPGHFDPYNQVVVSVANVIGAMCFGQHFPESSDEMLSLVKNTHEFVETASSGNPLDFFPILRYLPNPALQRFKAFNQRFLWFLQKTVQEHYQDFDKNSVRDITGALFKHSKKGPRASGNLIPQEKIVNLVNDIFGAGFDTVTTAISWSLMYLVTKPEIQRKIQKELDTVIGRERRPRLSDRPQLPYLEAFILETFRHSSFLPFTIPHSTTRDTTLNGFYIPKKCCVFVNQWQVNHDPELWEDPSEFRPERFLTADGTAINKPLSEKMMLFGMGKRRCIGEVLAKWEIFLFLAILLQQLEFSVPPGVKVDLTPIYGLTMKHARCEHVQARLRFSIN
Particulars: ripretinib 0.1 or 1 μM, data on file. How it is done: (§1) In vitro studies with recombinant human cytochrome P450 isoforms (CYPs) and human liver microsomes (with chemical inhibitors) indicate that CYP3A4/5 plays a major role in the metabolism of ripretinib (data on file). When incubated with a panel of recombinant human CYPs, ripretinib (0.1 or 1 μM) disappeared in the presence of CYP3A4 (87.8%–100%), CYP2D6 (97.7%–100%), CYP2C8 (71.2% and 18.9%, respectively), and CYP2C19 (15.7% and 6.7%, respectively).

The next series addresses T2, CYP2C8 (Homo sapiens, UniProt P10632).
T2 sequence (P10632 1-490): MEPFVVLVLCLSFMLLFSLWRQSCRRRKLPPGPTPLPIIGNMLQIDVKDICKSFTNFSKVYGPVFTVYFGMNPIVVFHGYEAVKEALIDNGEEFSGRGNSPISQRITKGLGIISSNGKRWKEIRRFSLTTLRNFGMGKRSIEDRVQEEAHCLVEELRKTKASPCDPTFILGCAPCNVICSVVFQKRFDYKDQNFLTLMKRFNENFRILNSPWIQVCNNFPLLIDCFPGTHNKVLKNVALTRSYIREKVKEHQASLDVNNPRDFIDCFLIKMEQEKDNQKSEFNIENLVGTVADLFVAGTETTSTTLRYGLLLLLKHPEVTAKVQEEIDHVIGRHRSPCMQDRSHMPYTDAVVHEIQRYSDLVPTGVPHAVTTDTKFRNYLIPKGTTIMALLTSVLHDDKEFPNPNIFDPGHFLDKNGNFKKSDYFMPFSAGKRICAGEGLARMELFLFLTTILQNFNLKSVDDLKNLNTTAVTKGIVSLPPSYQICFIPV
Particulars: data on file. How it is done:
as §1

A further series addresses CYP2C9 (Homo sapiens, UniProt P11712). As to conditions: ripretinib 0.1 or 1 μM, data on file. How it is done:
as §1

The next series concerns the target CYP3A4 (Homo sapiens, UniProt P08684). Particulars: ripretinib 0.1 or 1 μM, data on file. How it is done:
as §1

CYP2C9, sequence (P11712 whole entry): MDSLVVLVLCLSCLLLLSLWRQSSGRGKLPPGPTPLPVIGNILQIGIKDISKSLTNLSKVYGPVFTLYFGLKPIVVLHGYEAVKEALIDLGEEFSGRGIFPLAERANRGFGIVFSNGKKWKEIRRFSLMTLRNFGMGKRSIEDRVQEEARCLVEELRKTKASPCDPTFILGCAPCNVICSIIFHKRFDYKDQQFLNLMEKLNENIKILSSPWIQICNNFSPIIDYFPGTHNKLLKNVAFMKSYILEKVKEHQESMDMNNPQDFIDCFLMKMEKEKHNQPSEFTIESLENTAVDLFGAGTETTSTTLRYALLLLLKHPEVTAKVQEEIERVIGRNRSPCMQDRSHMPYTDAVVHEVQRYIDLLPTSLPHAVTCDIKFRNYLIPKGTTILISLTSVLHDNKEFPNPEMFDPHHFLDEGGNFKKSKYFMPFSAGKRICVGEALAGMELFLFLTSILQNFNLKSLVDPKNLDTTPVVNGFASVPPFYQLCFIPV
CYP3A4, sequence (P08684 whole entry): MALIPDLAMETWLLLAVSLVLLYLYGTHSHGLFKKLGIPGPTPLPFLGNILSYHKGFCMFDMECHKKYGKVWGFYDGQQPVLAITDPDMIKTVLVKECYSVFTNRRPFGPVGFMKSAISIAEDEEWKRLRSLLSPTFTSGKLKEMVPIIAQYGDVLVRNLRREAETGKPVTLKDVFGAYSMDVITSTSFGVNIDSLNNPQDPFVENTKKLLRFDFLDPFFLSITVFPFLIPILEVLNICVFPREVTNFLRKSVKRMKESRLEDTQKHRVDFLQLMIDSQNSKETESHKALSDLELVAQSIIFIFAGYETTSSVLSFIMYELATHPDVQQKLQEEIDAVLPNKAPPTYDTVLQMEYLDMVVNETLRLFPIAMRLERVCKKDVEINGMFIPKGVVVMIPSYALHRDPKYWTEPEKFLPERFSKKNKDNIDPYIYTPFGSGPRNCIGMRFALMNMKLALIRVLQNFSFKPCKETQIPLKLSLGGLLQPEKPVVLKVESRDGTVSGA

As for `CCn1c(=O)c(-c2cc(NC(=O)Nc3ccccc3)c(F)cc2Br)cc2cnc(NC)cc21` [Ripretinib], the Substrate disappearance entry is recorded as “less than 7%” at CYP1A2; 71.2% at CYP2C8 (ripretinib 0.1 μM); 18.9% at CYP2C8 (ripretinib 1 μM); “less than 7%” at CYP2C9; 87.8%–100% at CYP3A4.

(Values after paper PMC9790248, “Effects of CYP3A Inhibition, CYP3A Induction, and Gastric Acid Reduction on the Pharmacokinetics of Ripretinib, a Switch Control KIT Tyrosine Kinase Inhibitor” (Clinical Pharmacology in Drug Development, 2022).)
